From patent publication US12558386B2, “Methods and compositions to modulate antibiotic resistance and gastrointestinal microbiota” (OHIO STATE INNOVATION FOUNDATION, priority 2018, dated 2026)
≈ marks a conversion by molar mass, not a printed value. Read-outs that look alike come from different tables or passages of the source.

Experiments:
[1] = system: Lactobacillus crispatus CG-12; assay: MIC assessment (TREK Sensititre); type: cell-based
Method: (§1) Multiple commensal bacterial strains from chicken feces were recovered from Columbia blood Agar base (Becton, […] Dickinson and Company, Franklin Lakes, NJ) supplemented with 5% defibrinated sheep blood (Thermo Scientific™, Grand Island, NY), and maintained in Columbia broth (Becton Dickinson and Company, Franklin Lakes, NJ) and propagated by anaerobic growth at 37° C. The strains were subjected to antibiotic susceptibility assessment followed by strain identification.
(§2) Minimum inhibition concertation (MIC) assessment. A TREK Sensititre diagnostic system (Thermo scientific, Oakwood Village, OH, USA) was used to assess the AR phenotype and MIC of isolated strains. Protocols to use this system can be found on www.trekds.com. Cation-adjusted Mueller Hinton Broth (Becton, Dickinson and Company, MD, USA) was used as basic medium.

E. coli CA-1 = assay: MIC assessment (TREK Sensititre); type: cell-based, Escherichia coli
Source text: (§3) Bacterial strains. Multiple Amp^r strains from feces of broiler chickens without antibiotic treatment were recovered on Columbia blood Agar base (Becton, […] Dickinson and Company, Franklin Lakes, NJ) supplemented with 5% defibrinated sheep blood (Thermo Scientific™, Grand Island, NY).
as §2

E. coli CA-20 = assay: MIC assessment (TREK Sensititre); type: cell-based, Escherichia coli
Method: as §3, with “NY). The strains were maintained in Columbia broth (Becton Dickinson and Company, Franklin Lakes, NJ), and propagated by aerobic growth at 37° C., and further subjected to strain identification and Minimum Inhibition Concentration (MIC) assessments.” for “NY).”
as §2

E. coli CA-4 = assay: MIC assessment (TREK Sensititre); type: cell-based, Escherichia coli
Method: as §3, with “NY). The strains were maintained in Columbia broth (Becton Dickinson and Company, Franklin Lakes, NJ), and propagated by aerobic growth at 37° C., and further subjected to strain identification and Minimum Inhibition Concentration (MIC) assessments.” for “NY).”
as §2

[2] = system: poultry fecal/gut microbiota (Proteobacteria, ESBL E. coli); assay: Chicken study, metagenomics assessment #1 of pooled feces (FIG. 5); type: in vivo, chickens; settings: Tween 80 treatment (Lanes 6, 8)
Source text: FIGS. 5A and 5B show the impact of probiotic treatment on bacterial population in pooled feces of chickens. FIG. 5A) Phylum level; FIG. 5B) Class level. The treatments include Lane 1 (no, cocktail, no): no ESBL E. coli inoculation for 4 days, then inoculated with probiotic cocktail but no Tween 80; Lane 2 (no; no, no): no E. coli, no probiotics, no Tween 80; Lane 3: (probiotics, E. coli, no): probiotic cocktail for 4 days, followed by E. coli, but no Tween 80); Lane 4 (Yes, CG12, no): E. coli for 4 days, followed by Lb. crispatus (WZ12) for 4 days but no Tween 80; Lane 5 (yes, cocktail, no): E. coli for 4 days, followed by probiotic cocktail for 4 days, no Tween; Lane 6 ((yes, cocktail, yes): E. coli for 4 days, followed by probiotic cocktail for 4 days, with Tween 80; Lane 7 (Yes, no, no): E. coli for 4 days, saline for 4 days (no probiotics no Tween); Lane 8 (yes, no, yes): ESBL E. coli for 4 days, no probiotics but with Tween 80 for 4 days.
Animal Studies. The probiotics as disclosed herein were applied to chickens raised in a poultry facility, with the aim to examine the effectiveness of the treatment phenotypically and genetically (fecal microbiota) and physiologically (chickens); and to adjust receipt and procedure of feeding if necessary.
Treatments effective in modulating gut microbiota. […]

Three Amp^r E. coli = assay: MIC assessment, summary for the three strains; type: cell-based, Escherichia coli; settings: E. coli CA-1, CA-4 and CA-20 together
Method: as §3, with “NY). The strains were maintained in Columbia broth (Becton Dickinson and Company, Franklin Lakes, NJ), and propagated by aerobic growth at 37° C., and further subjected to strain identification and Minimum Inhibition Concentration (MIC) assessments.” for “NY).”
as §2

CG-12 = assay: Screening of antibiotic susceptible commensal strains on antibiotic agar plates; type: cell-based, Lactobacillus crispatus; settings: 16 μg/mL tetracycline, 100 μg/mL erythromycin, 32 μg/mL ampicillin, 152 μg/mL sulfamethoxazole with 8 μg/mL trimethoprim
Method: as §1
Screening of antibiotic susceptible commensal strains. Recovered commensal strain isolates (over 1000 colonies) were spotted on Columbia broth (Becton, […] Dickinson and Company, Franklin Lakes, NJ) agar plates containing each of the four antibiotics for rapid assessment of phenotypic resistance profiles. Screened antibiotics included 16 μg/mL tetracycline (Sigma-Aldrich, St. Louis, MO, USA), 100 μg/mL erythromycin (Fisher Scientific, Waltham, MA, USA), 32 μg/mL ampicillin (Sigma-Aldrich), and 152 μg/mL sulfamethoxazole (Sigma-Aldrich) with 8 μg/mL trimethoprim (Sigma-Aldrich).

[3] = Lactobacillus crispatus, CG12, L. crispatus CG-12, read-out: MIC
[4] = Escherichia coli, CA1, E. coli CA-1, read-out: MIC
[5] = Escherichia coli, CA20, E. coli CA-20, read-out: MIC
[6] = Escherichia coli, CA4, E. coli CA-4, read-out: MIC

Compound | MIC [1, 3] [µg/mL] | MIC (E. coli CA-1; [4]) [µg/mL] | MIC (E. coli CA-20; [5]) [µg/mL] | MIC (E. coli CA-4; [6]) [µg/mL] | resistance phenotype from MIC, in words (Three Amp^r E. coli) | other results
C[C@H]1COc2c(N3CCN(C)CC3)c(F)cc3c(=O)c(C(=O)O)cn1c23 [LEVO, levofloxacin] | > 8 | < 0.25 | < 0.25 | < 0.25 |  | 
CCCCCCCC/C=C\CCCCCCCC(=O)OCCOCC(OCCO)C1OCC(OCCO)C1OCCO (stereo not drawn) [Tween 80] |  |  |  |  |  | effect on fecal microbiota [2]: assisted the colonization of Proteobacteria but not the Firmicutes
penicillin |  |  |  |  | high resistance | MIC ([1]; L. crispatus CG-12): 0.5 µg/mL; MIC (E. coli CA-1; E. coli CA-1): >8 µg/mL; MIC (E. coli CA-20; E. coli CA-20): >8 µg/mL; MIC (E. coli CA-4; E. coli CA-4): >8 µg/mL
O=C(O)c1cn(C2CC2)c2cc(N3CCNCC3)c(F)cc2c1=O [CIP, ciprofloxacin] | > 2 |  |  |  |  | resistance phenotype from MIC, in words ([1]; L. crispatus CG-12): resistant
CCCCCCCCCC(=O)N[C@@H](Cc1c[nH]c2ccccc12)C(=O)N[C@H](CC(N)=O)C(=O)N[C@@H](CC(=O)O)C(=O)N[C@@H]1C(=O)NCC(=O)N[C@@H](CCCN)C(=O)N[C@@H](CC(=O)O)C(=O)N[C@H](C)C(=O)N[C@@H](CC(=O)O)C(=O)NCC(=O)N[C@H](CO)C(=O)N[C@@H]([C@H](C)CC(=O)O)C(=O)N[C@@H](CC(=O)c2ccccc2N)C(=O)O[C@@H]1C [DAP, daptomycin] | 4 (≈ 2.47 µM) | > 8 | > 8 | > 8 | resistant | resistance phenotype from MIC, in words ([1]; L. crispatus CG-12): resistant
sulfamethoxazole/trimethoprim [SXT] |  |  |  |  |  | phenotypic susceptibility on antibiotic agar plates (CG-12): susceptible; MIC ([1]; L. crispatus CG-12): 2/38
CN(C)[C@@H]1C(O)=C(C(N)=O)C(=O)[C@@]2(O)C(O)=C3C(=O)c4c(O)cccc4[C@@](C)(O)[C@H]3C[C@@H]12 [TET, tetracycline] | < 2 | < 2 | < 2 | < 2 |  | 
COc1c(N2CCNC(C)C2)c(F)cc2c(=O)c(C(=O)O)cn(C3CC3)c12 (stereo not drawn) [GAT, gatifloxacin] | 4 (≈ 10.7 µM) | < 1 | < 1 | < 1 |  | resistance phenotype from MIC, in words ([1]; L. crispatus CG-12): resistant
CN[C@H](CC(C)C)C(=O)N[C@H]1C(=O)N[C@@H](CC(N)=O)C(=O)N[C@H]2C(=O)N[C@H]3C(=O)N[C@H](C(=O)N[C@H](C(=O)O)c4cc(O)cc(O)c4-c4cc3ccc4O)[C@H](O)c3ccc(c(Cl)c3)Oc3cc2cc(c3O[C@@H]2O[C@H](CO)[C@@H](O)[C@H](O)[C@H]2O[C@H]2C[C@](C)(N)[C@H](O)[C@H](C)O2)Oc2ccc(cc2Cl)[C@H]1O [VAN, vancomycin] |  |  |  |  | resistant | MIC ([1]; Lactobacillus crispatus, CG12): < 1 µg/mL; MIC (E. coli CA-1; Escherichia coli, CA1): > 128 µg/mL; MIC (E. coli CA-20; Escherichia coli, CA20): > 128 µg/mL; MIC (E. coli CA-4; Escherichia coli, CA4): > 128 µg/mL
CO/N=C(\C(=O)N[C@@H]1C(=O)N2C(C(=O)O)=C(CSc3nc(=O)c(=O)[nH]n3C)CS[C@H]12)c1csc(N)n1 [AXO, ceftriaxone] | < 8 | < 8 | 16 (≈ 28.9 µM) | < 8 |  | resistance phenotype from MIC, in words (E. coli CA-20; only E. coli CA-20): some resistant
quinupristin/dalfopristin [SYN] |  |  |  |  |  | MIC ([1]; L. crispatus CG-12): 0.25 µg/mL; MIC (E. coli CA-1; E. coli CA-1): >4 µg/mL; MIC (E. coli CA-20; E. coli CA-20): >4 µg/mL; MIC (E. coli CA-4; E. coli CA-4): >4 µg/mL
oxacillin + 2% NaC [OXA+] |  |  |  |  | high resistance | MIC ([1]; L. crispatus CG-12): <0.25 µg/mL; MIC (E. coli CA-1; E. coli CA-1): >8 µg/mL; MIC (E. coli CA-20; E. coli CA-20): 8 µg/mL; MIC (E. coli CA-4; E. coli CA-4): >8 µg/mL
CCC[C@@H]1C[C@@H](C(=O)N[C@@H]([C@H]2O[C@H](SC)[C@H](O)[C@@H](O)[C@H]2O)[C@H](C)Cl)N(C)C1 [CLI, clindamycin] | < 0.12 | > 2 | > 2 | > 2 |  | 
[H]/N=C(/N)N[C@H]1[C@H](O)[C@@H](O)[C@H](O[C@@H]2O[C@@H](C)[C@](O)(C=O)[C@H]2O[C@@H]2O[C@@H](CO)[C@H](O)[C@@H](O)[C@@H]2NC)[C@@H](N/C(N)=N\[H])[C@@H]1O [STR, streptomycin] | < 1000 | < 1000 | < 1000 | < 1000 |  | 
gentamicin |  |  |  |  |  | MIC ([1]; L. crispatus CG-12): 16 µg/mL; MIC (E. coli CA-1; E. coli CA-1): 4 µg/mL; MIC (E. coli CA-20; E. coli CA-20): 8 µg/mL; MIC (E. coli CA-4; E. coli CA-4): 4 µg/mL
CC(=O)NC[C@H]1CN(c2ccc(N3CCOCC3)c(F)c2)C(=O)O1 [LZD, linezolid] | 2 (≈ 5.93 µM) | > 8 | > 8 | > 8 | resistant | 
CO[C@H]1/C=C/O[C@@]2(C)Oc3c(C)c(O)c4c(O)c(c(/C=N/N5CCN(C)CC5)c(O)c4c3C2=O)NC(=O)/C(C)=C\C=C\[C@H](C)[C@H](O)[C@@H](C)[C@@H](O)[C@@H](C)[C@H](OC(C)=O)[C@@H]1C [RIF, rifampin] | 1 (≈ 1.22 µM) | 4 (≈ 4.86 µM) | 4 (≈ 4.86 µM) | > 4 |  | 
CC[C@H]1OC(=O)[C@H](C)[C@@H](O[C@H]2C[C@@](C)(OC)[C@@H](O)[C@H](C)O2)[C@H](C)[C@@H](O[C@@H]2O[C@H](C)C[C@H](N(C)C)[C@H]2O)[C@](C)(O)C[C@@H](C)C(=O)[C@H](C)[C@@H](O)[C@]1(C)O [ERY, erythromycin] | < 0.25 | > 4 | > 4 | > 4 | resistant | phenotypic susceptibility on antibiotic agar plates (CG-12): susceptible
